{"source": "paper PMC12657321", "about": "“Pre-clinical evaluation of a potent and effective Pin1-degrading agent in pancreatic cancer” (Molecular Therapy Oncology, 2025)", "key": {"human Pin1 [1]": {"biological_target": "T1, human Pin1 (Homo sapiens, UniProt Q13526)", "T1 construct": "Residues 1–163 of human Pin1 were expressed with a thrombin cleavage site and a HisTag at the N-terminus; 6xHis (N); thrombin cleavage site (N); made in house; host or cells: E. coli", "T1 sequence (Q13526 whole entry, the tested form may be a part)": "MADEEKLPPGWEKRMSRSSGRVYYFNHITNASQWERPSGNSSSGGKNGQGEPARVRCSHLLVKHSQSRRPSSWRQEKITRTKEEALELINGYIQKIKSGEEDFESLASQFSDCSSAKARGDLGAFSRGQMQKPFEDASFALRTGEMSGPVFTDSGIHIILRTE", "test": "DELFIA displacement assay (biotinylated D-peptide / His-tagged Pin1)", "format": "binding", "details": "DELFIA displacement of biotinylated D-peptide from His-tagged Pin1; compound incubation 6 h; ± standard error of duplicate measurements", "method": "(§1) To assess the ability of our agents to bind and inhibit Pin1, we developed a robust biochemical assay based on the dissociation-enhanced lanthanide fluorescent immunoassay (DELFIA) platform. In our implementation, we used a biotinylated form of a known Pin1-binding peptide (D-peptide) to monitor the ability of test agents to inhibit the interaction between Pin1 and the D-peptide at various incubation times, as described previously.[32] […] In addition, as mentioned above and reported recently, we tested the ability of the agents to reduce Pin1 thermal stability in vitro by thermal denaturation measurements.[32] […] Pin1 unfolding causes a nonspecific interaction between the water-quenched fluorescent dye and the protein’s exposed hydrophobic residues, resulting in increased fluorescence. A shift in the thermal denaturation temperature between the free and bound protein is interpreted as a stabilization or destabilization event induced by the test ligand. […] To further assess whether these agents could be suitable for in vivo efficacy studies, we also performed stability assays in aqueous buffer and in plasma from various species (Table S2, Figure S2). We tested the stability of our agents in plasma from multiple mouse strains as well as in human plasma (Figure S2), given the peptide nature of the compounds. […]"}, "human Pin1 [2]": {"biological_target": "T1, human Pin1", "test": "Denaturation thermal shift measurements (SYPRO Orange)", "format": "binding", "details": "thermal denaturation shift of Pin1, 20 μM protein, protein:ligand 1:2, 50 mM phosphate pH 7.5, 150 mM NaCl, 3% DMSO, 10-95°C, quadruplicates", "method": "as §1"}, "Pin1 in MIA PaCa-2 cells": {"biological_target": "T2, Pin1 in MIA PaCa-2 cells (Homo sapiens, UniProt Q13526)", "T2 construct": "endogenous in cells; host or cells: BxPC3, MIA PaCa-2", "T2 sequence (Q13526 whole entry)": "as the sequence (Q13526 whole entry, the tested form may be a part) above", "test": "Pin1 degradation by western blot in MIA PaCa-2 cells", "format": "cell-based", "details": "MIA PaCa-2, 0.5-15 μM for 24 h, Pin1 relative to β-actin", "method": "To ascertain that the plasma-stable agent 164B8 retained its ability to induce Pin1 degradation in cells, we tested it in three pancreatic cancer cell lines—human BxPC3 and MIA PaCa-2, and the mouse pancreatic cancer cell line KPC—using western blot analysis (Figure 2).\nFigure 2 Degradation of Pin1 in different cell lines in response to 164B8 treatment BxPC3, MIA PaCa-2, and KPC were each treated with 0.1% DMSO and concentrations of 164B8 ranging between 0.5 and 15 μM for 24 h, and Pin1 levels were quantified with respect to β-actin using a specific anti-Pin1 antibody and western blotting (uncropped blots are reported in Figure S6).\nAt the end of the treatments, cells were lysed with a lysis buffer containing 20 mM Tris (pH 7.4), 1% Triton X-100, 5 mM EDTA, 0.1% sodium dodecyl sulfate (SDS), 1% IGEPAL, 0.5% sodium deoxycholate, 120 mM NaCl, and a protease inhibitor cocktail and PhosSTOP (Sigma-Aldrich). Lysates were then centrifuged at 16,000 × g for 20 min at 4°C, and the supernatants were collected. Protein concentrations were determined using the Pierce BCA Protein Assay Kit (Thermo Fisher Scientific) according to the manufacturer’s protocol. For traditional western blotting (Figure 2), samples were loaded onto precast Bis-Tris gels and subsequently transferred onto PVDF membranes. […]"}, "KPC cells": {"system": "KPC cells", "format": "cell-based, mouse", "details": "72 h", "method": "The effect of Pin1 degradation by 164B8 on cell viability was assessed using live-cell analysis (IncuCyte S3). […] Furthermore, to evaluate the acute single-dose toxicity of 164B8 in vivo, CD-1 immune-competent mice were exposed to increasing doses of 164B8. […] Therefore, a maximum tolerated dose was not reached (Figure S12).\nFigure S11: Mia PaCa-2 and KPC cells were treated with different doses of 164B8, and the\nIncuCyte S3 live-cell analysis system was used to monitor the agent’s activity every 3 hours for\n(1 picture or pasted object on this page, not shown here)"}}, "note": "Non-standard residues stand in square brackets, D forms with d. Residues, ends and D or L forms follow the SMILES beside them. *: point of attachment. Trp(6-Cl) = N[C@@H](Cc1c[nH]c2cc(Cl)ccc12)C(=O)O; Pip = O=C(O)[C@@H]1CCCCN1; ClAc = O=C(CCl)*"}
{"compound": "CNC(=O)[C@H](Cc1c[nH]c2ccccc12)NC(=O)[C@@H]1CCCCN1C(=O)[C@H](Cc1c[nH]c2cc(Cl)ccc12)NC(=O)CCl", "note": "[164B8] (ClAc-[Trp(6-Cl)]-[Pip]-Trp-NHMe)", "values": [{"measurement": "IC50", "setting": "human Pin1 [1]", "value": "4.65 ± 0.04", "unit": "nM"}, {"measurement": "ΔTm (°C)", "setting": "human Pin1 [2]", "value": "−9.55 ± 0.19", "unit": "°C"}, {"measurement": "DC50 of Pin1 degradation", "setting": "Pin1 in MIA PaCa-2 cells", "value": "sub-micromolar"}, {"measurement": "EC50", "setting": "KPC cells", "value": 5300, "unit": "nM"}]}
